Holding throughout (type): biochemical
Assay [1] deals with CDK4/cyclin D1 (Homo sapiens (Human), UniProt P11802). The experiment in a line: CDK4/Cyclin D1 enzymatic activity assay (Lance TR-FRET). The essentials: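 Recombinant His6-CDK4/GST-cyclin D1 (Sf21-expressed), 0.3 nM, phosphorylated 175 nM pRb152 with 3 μM ATP in HEPES pH 7.5, Mg/Mn buffer, 2% DMSO, 60 min at room temperature. Compound range 0.005-10 μM. EDTA-quenched; pRb S780 phosphorylation read by TR-FRET (Eu anti-rabbit/APC-streptavidin) for IC50.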
CDK4/cyclin D1, sequence (P11802 whole entry): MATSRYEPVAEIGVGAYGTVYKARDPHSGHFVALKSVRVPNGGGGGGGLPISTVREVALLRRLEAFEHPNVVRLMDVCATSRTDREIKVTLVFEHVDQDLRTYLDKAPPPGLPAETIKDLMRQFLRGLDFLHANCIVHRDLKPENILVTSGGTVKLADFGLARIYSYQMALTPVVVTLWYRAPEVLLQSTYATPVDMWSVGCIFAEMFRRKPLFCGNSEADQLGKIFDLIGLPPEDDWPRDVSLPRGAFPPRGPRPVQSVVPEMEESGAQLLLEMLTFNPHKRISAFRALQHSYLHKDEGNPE
CDK4/cyclin D1, sequence (P24385 whole entry partner): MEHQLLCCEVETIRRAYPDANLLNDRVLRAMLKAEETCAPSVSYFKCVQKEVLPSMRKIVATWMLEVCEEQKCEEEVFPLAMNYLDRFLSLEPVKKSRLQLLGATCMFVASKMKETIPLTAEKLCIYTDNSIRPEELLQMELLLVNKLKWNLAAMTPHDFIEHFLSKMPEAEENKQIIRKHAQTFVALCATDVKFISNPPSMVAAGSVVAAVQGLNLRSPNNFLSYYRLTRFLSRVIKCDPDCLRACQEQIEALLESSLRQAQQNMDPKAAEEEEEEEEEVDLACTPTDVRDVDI
On the technique in general: Time-resolved FRET reads energy transfer from a long-lived donor to a nearby acceptor.

The target in assay [2] is CDK1/cyclin B (Homo sapiens (Human), UniProt P06493). Put plainly: CDK1/Cyclin B enzymatic activity assay (IMAP-FP). From the text: A 384-well microtiter IMAP-FPT™ (Molecular Devices Trade Mark Technology) endpoint assay was used for CDK1/cyclin B kinase activity measurements. The same assay was used for IC50 determination of small molecule inhibitors.
CDK1/cyclin B, sequence (P06493 whole entry, species assumed): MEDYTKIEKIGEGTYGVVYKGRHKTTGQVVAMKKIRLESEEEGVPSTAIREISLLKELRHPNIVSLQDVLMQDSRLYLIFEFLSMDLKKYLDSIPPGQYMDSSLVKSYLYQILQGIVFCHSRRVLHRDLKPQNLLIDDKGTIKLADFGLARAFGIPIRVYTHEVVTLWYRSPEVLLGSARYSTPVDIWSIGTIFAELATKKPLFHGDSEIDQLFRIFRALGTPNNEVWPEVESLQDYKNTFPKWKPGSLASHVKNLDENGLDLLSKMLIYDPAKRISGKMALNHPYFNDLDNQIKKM
CDK1/cyclin B, sequence (P14635 whole entry partner, species assumed): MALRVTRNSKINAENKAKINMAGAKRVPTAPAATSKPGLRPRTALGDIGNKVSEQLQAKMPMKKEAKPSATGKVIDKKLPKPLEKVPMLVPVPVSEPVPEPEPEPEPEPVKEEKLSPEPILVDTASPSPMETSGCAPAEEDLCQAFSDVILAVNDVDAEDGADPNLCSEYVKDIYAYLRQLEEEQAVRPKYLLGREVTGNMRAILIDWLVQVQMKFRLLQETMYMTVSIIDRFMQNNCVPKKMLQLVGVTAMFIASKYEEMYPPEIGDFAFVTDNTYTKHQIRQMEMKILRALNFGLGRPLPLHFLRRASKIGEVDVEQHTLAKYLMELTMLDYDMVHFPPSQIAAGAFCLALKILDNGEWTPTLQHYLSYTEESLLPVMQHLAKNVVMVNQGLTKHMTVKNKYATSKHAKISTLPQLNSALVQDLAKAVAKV
Assay [3] concerns the target CDK2/cyclin A (Homo sapiens (Human), UniProt P24941). The experiment in a line: CDK2/Cyclin A enzymatic activity assay (IMAP-FP).
The mark [4] stands for this setting: Table 2, 3 μM ATP, read-out: CDK4.
[5] abbreviates: Table 2, 20 μM ATP, read-out: CDK1.
[6] abbreviates: Table 4, read-out: IC50 (μM) CDK4.
[7] abbreviates: Table 4, read-out: IC50 (μM) CDK1.
Where [8] appears, read: Table 4, read-out: IC50 (μM) CDK2.

SMILES strings stand for the structures. Like-named read-outs stand apart in the source and are kept apart here.

Regarding `CN(C)C(=O)c1cc2cnc(Nc3ccc(CN4CCC(O)CC4)cn3)nc2n1C1CCCC1` [Example 76, 7-Cyclopentyl-2-[5-(4-hydroxy-piperidin-1-ylmethyl)-pyridin-2-ylamino]-7H-pyrrolo[2,3-d]pyrimidine-6-carboxylic acid dimethylamide], the IC50 in assay [1] (setting [4]) was 0.01 to 0.1 µM; in assay [2] (setting [5]), > 15 µM; in assay [3] (Table 2, read-out: CDK2), > 15 µM.
In the case of `CN(C)C(=O)c1cc2cnc(Nc3ccc(N4CCC(N(C)C)CC4)cn3)nc2n1C1CCCC1` [Example 6, 7-Cyclopentyl-2-(4-dimethylamino-3,4,5,6-tetrahydro-2-[1,3′]bipyridinyl-6′-ylamino)-7H-pyrrolo[2,3-d]pyrimidine-6-carboxylic acid dimethylamide], the IC50 in assay [1] (setting [4]) is 0.001 to 0.01 µM; in assay [2] (setting [5]), > 15 µM; in assay [3] (Table 2, read-out: CDK2), > 15 µM.
On to `c1ncc(-c2cc3cnc(Nc4ccc(N5CCNCC5)cn4)nc3n2C2CCCC2)o1` [Example 11, (7-Cyclopentyl-6-oxazol-5-yl-7H-pyrrolo[2,3-d]pyrimidin-2-yl)-(5-piperazin-1-yl-pyridin-2-yl)-amine], for which the IC50 is 0.001 to 0.01 µM in assay [1] (setting [4]); 1.3 µM in assay [2] (setting [5]); 3.5 µM in assay [3] (Table 2, read-out: CDK2).
For `C[C@H]1CN(c2ccc(Nc3ncc4cc(C(=O)N(C)C)n(C5CCCC5)c4n3)nc2)CCN1` [Example 17, 7-Cyclopentyl-2-[5-((S)-3-methyl-piperazin-1-yl)-pyridin-2-ylamino]-7H-pyrrolo[2,3-d]pyrimidine-6-carboxylic acid dimethylamide], the IC50 in assay [1] (setting [4]) was 0.01 to 0.1 µM; in assay [2] (setting [5]), > 15 µM; in assay [3] (Table 2, read-out: CDK2), > 15 µM.
As for `CN(C)C(=O)c1cc2cnc(Nc3ccc(C(=O)N4CCC(O)CC4)cn3)nc2n1C1CCCC1` [Example 87, 7-Cyclopentyl-2-[5-(4-hydroxy-piperidine-1-carbonyl)-pyridin-2-ylamino]-7H-pyrrolo[2,3-d]pyrimidine-6-carboxylic acid dimethylamide], the IC50 in assay [1] (setting [4]) was 0.01 to 0.1 µM; in assay [2] (setting [5]), 13 µM; in assay [3] (Table 2, read-out: CDK2), > 15 µM.
For `C[C@@H](O)CN1CCN(c2ccc(Nc3ncc4cc(C(=O)N(C)C)n(C5CCCC5)c4n3)nc2)CC1` [Example 57, 7-Cyclopentyl-2-{5-[4-((R)-2-hydroxy-propyl)-piperazin-1-yl]-pyridin-2-ylamino}-7H-pyrrolo[2,3-d]pyrimidine-6-carboxylic acid dimethylamide] the same measures were 0.01 to 0.1 µM, > 15 µM and > 15 µM.
For `CC1CN(c2ccc(Nc3ncc4cc(C(=O)N(C)C)n(C5CCCC5)c4n3)nc2)CCN1` (stereo not drawn) [Example 19, 7-Cyclopentyl-2-[5-(3-methyl-piperazin-1-yl)-pyridin-2-ylamino]-7H-pyrrolo[2,3-d]pyrimidine-6-carboxylic acid dimethylamide] the same measures were 0.001 to 0.01 µM, > 15 µM and > 15 µM.
Consider `CN(C)C(=O)c1cc2cnc(Nc3ccc(N4CCN(C(=O)CC5CCCCC5)CC4)cn3)nc2n1C1CCCC1` [Example 90, 2-{5-[4-(2-Cyclohexyl-acetyl)-piperazin-1-yl]-7H-pyridin-2-ylamino}-7-cyclopentyl-7H-pyrrolo[2,3-d]pyrimidine-6-carboxylic acid dimethylamide], for which the IC50 in assay [1] (setting [4]) is 0.01 to 0.1 µM; in assay [2] (setting [5]) it was > 15 µM; in assay [3] (Table 2, read-out: CDK2) it was > 15 µM.
Turning to `CN(C)C(=O)c1cc2cnc(Nc3ccc(C(=O)N(C)C4CCNCC4)cn3)nc2n1C1CCCC1` [Example 53, 7-Cyclopentyl-2-[5-(methyl-piperidin-4-yl-carbamoyl)-pyridin-2-ylamino]-7H-pyrrolo[2,3-d]pyrimidine-6-carboxylic acid dimethylamide], the IC50 in assay [1] (setting [4]) is 0.01 to 0.1 µM; in assay [2] (setting [5]), > 15 µM; in assay [3] (Table 2, read-out: CDK2) it was > 15 µM.
In the case of `CC(C)N1CCN(c2ccc(Nc3ncc4cc(C(=O)N(C)C)n(C5CCCC5)c4n3)nc2)CC1` [Example 63, 7-Cyclopentyl-2-[5-(4-isopropyl-piperazin-1-yl)-pyridin-2-ylamino]-7H-pyrrolo[2,3-d]pyrimidine-6-carboxylic acid dimethylamide], the IC50 is 0.001 to 0.01 µM in assay [1] (setting [4]); 0.008 µM in assay [1] (setting [6]); > 15 µM in assay [2] (setting [5]); > 15 µM in assay [2] (setting [7]); > 15 µM in assay [3] (Table 2, read-out: CDK2); > 15 µM in assay [3] (setting [8]).
As for `Cc1c(C(=O)N(C)C)n(C2CCCC2)c2nc(Nc3ccc(N4CCNCC4)cn3)ncc12` [Example 202, reference compound], the IC50 in assay [1] (setting [6]) is 2.5 µM; in assay [2] (setting [7]), > 15 µM; in assay [3] (setting [8]), > 15 µM.
Consider `CN(C)C(=O)c1cc2cnc(Nc3ccc(N4CCN(C(=O)C5CCCCC5)CC4)cn3)nc2n1C1CCCC1` [Example 23, 2-[5-(4-Cyclohexanecarbonyl-piperazin-1-yl)-pyridin-2-ylamino]-7-cyclopentyl-7H-pyrrolo[2,3-d]pyrimidine-6-carboxylic acid dimethylamide], for which the IC50 in assay [1] (setting [4]) is 0.01 to 0.1 µM; in assay [2] (setting [5]) it was > 15 µM; in assay [3] (Table 2, read-out: CDK2), > 15 µM.
Take `CN(C)C(=O)c1cc2cnc(Nc3ccc(N4CCC(O)CC4)cn3)nc2n1C1CCCC1` [Example 20, 7-Cyclopentyl-2-(4-hydroxy-3,4,5,6-tetrahydro-2H-[1,3′]bipyridinyl-6′-ylamino)-7H-pyrrolo[2,3-d]pyrimidine-6-carboxylic acid dimethylamide]: the IC50 is 0.01 to 0.1 µM in assay [1] (setting [4]); > 15 µM in assay [2] (setting [5]); > 15 µM in assay [3] (Table 2, read-out: CDK2).
In the case of `CN(C)C(=O)c1cc2cnc(Nc3ccc(CN4CCN(S(C)(=O)=O)CC4)cn3)nc2n1C1CCCC1` [Example 34, 7-Cyclopentyl-2-[5-(4-methanesulfonyl-piperazin-1-ylmethyl)-pyridin-2-ylamino]-7H-pyrrolo[2,3-d]pyrimidine-6-carboxylic acid dimethylamide], the IC50 is 0.1 to 1 µM in assay [1] (setting [4]); > 15 µM in assay [2] (setting [5]); > 15 µM in assay [3] (Table 2, read-out: CDK2).
In the case of `CNC(=O)c1cc2cnc(Nc3ccc(N4CCN(C(C)C)CC4)cn3)nc2n1C1CCCC1` [Example 51, 7-Cyclopentyl-2-[5-(4-isopropyl-piperazin-1-yl)-pyridin-2-ylamino]-7H-pyrrolo[2,3-d]pyrimidine-6-carboxylic acid methylamide], the IC50 in assay [1] (setting [4]) is 0.01 to 0.1 µM; in assay [2] (setting [5]), > 15 µM; in assay [3] (Table 2, read-out: CDK2) it was > 15 µM.
For the molecule `CN(C)C1CCN(c2ccc(Nc3ncc4cc(C#N)n(C5CCCC5)c4n3)nc2)CC1` [Example 47, 7-Cyclopentyl-2-((4-dimethylaminopiperidin)-1-yl-pyridin-2-ylamino)-7H-pyrrolo[2,3-d]pyrimidine-6-carbonitrile], the IC50 in assay [1] (setting [4]) is 0.001 to 0.01 µM; in assay [2] (setting [5]) it was 2.6 µM; in assay [3] (Table 2, read-out: CDK2), 8.3 µM.
For `CC(C)N1CCN(Cc2ccc(Nc3ncc4cc(C(=O)N(C)C)n(C5CCCC5)c4n3)nc2)CC1` [Example 62, 7-Cyclopentyl-2-[5-(4-isopropyl-piperazin-1-ylmethyl)-pyridin-2-ylamino]-7H-pyrrolo[2,3-d]pyrimidine-6-carboxylic acid dimethylamide] the same measures were 0.01 to 0.1 µM, > 15 µM and > 15 µM.
In the same order, the values of `CN(C)C(=O)c1cc2cnc(Nc3ccc(N4CCN(C(=O)C5CC5)CC4)cn3)nc2n1C1CCCC1` [Example 27, 7-Cyclopentyl-2-[5-(4-cyclopropanecarbonyl-piperazin-1-yl)-pyridin-2-ylamino]-7H-pyrrolo[2,3-d]pyrimidine-6-carboxylic acid dimethylamide] are 0.01 to 0.1 µM, > 15 µM and > 15 µM.
On to `CN(C)C(=O)c1cc2cnc(Nc3ccccn3)nc2n1C1CCCC1` [Example 1, 7-Cyclopentyl-2-(pyridin-2-ylamino)-7H-pyrrolo[2,3-d]pyrimidine-6-carboxylic acid dimethylamide], for which the IC50 in assay [1] (setting [4]) was 0.1 to 1 µM; in assay [2] (setting [5]), > 15 µM; in assay [3] (Table 2, read-out: CDK2), > 15 µM.
For `CN(C)C(=O)c1cc2cnc(Nc3ccc(N4CCN(C(=O)N5CCCCC5)CC4)cn3)nc2n1C1CCCC1` [Example 94, 7-Cyclopentyl-2-{5-[4-(piperidine-1-carbonyl)-piperazin-1-yl]-pyridin-2-ylamino}-7H-pyrrolo[2,3-d]pyrimidine-6-carboxylic acid dimethylamide], the IC50 in assay [1] (setting [4]) was 0.01 to 0.1 µM; in assay [2] (setting [5]) it was > 15 µM; in assay [3] (Table 2, read-out: CDK2) it was > 15 µM.
`CN(C)C(=O)c1cc2cnc(Nc3ccc(CN4CCNCC4)cn3)nc2n1C1CCCC1` [Example 42, 7-Cyclopentyl-2-(5-piperazin-1-ylmethyl-pyridin-2-ylamino)-7H-pyrrolo[2,3-d]pyri-midine-6-carboxylic acid dimethylamide]: the IC50 is 0.01 to 0.1 µM in assay [1] (setting [4]); > 15 µM in assay [2] (setting [5]); > 15 µM in assay [3] (Table 2, read-out: CDK2).
For `CN(C)C(=O)c1cc2cnc(Nc3ccc(C4CCNCC4)cn3)nc2n1C1CCCC1` [Example 52, 7-Cyclopentyl-2-(1′,2′,3′,4′,5′,6-hexahydro-[3,4]bipyridinyl-6-ylamino)-7H-pyrrolo[2,3-d]pyrimidine-6-carboxylic acid dimethylamide], the IC50 is 0.01 to 0.1 µM in assay [1] (setting [4]); > 15 µM in assay [2] (setting [5]); > 15 µM in assay [3] (Table 2, read-out: CDK2).
